Columns and labels:
Assay type in all cases: biochemical
A2M = target: T1, A2M (Homo sapiens, UniProt P01023); test: Reaction of soluble S2238 in 96-well plate, change in absorbance at 405 nm over 100 seconds; settings: absorbance 405 nm over 100 seconds
T1 construct: purchased Sigma
T1 sequence (P01023 24-1474): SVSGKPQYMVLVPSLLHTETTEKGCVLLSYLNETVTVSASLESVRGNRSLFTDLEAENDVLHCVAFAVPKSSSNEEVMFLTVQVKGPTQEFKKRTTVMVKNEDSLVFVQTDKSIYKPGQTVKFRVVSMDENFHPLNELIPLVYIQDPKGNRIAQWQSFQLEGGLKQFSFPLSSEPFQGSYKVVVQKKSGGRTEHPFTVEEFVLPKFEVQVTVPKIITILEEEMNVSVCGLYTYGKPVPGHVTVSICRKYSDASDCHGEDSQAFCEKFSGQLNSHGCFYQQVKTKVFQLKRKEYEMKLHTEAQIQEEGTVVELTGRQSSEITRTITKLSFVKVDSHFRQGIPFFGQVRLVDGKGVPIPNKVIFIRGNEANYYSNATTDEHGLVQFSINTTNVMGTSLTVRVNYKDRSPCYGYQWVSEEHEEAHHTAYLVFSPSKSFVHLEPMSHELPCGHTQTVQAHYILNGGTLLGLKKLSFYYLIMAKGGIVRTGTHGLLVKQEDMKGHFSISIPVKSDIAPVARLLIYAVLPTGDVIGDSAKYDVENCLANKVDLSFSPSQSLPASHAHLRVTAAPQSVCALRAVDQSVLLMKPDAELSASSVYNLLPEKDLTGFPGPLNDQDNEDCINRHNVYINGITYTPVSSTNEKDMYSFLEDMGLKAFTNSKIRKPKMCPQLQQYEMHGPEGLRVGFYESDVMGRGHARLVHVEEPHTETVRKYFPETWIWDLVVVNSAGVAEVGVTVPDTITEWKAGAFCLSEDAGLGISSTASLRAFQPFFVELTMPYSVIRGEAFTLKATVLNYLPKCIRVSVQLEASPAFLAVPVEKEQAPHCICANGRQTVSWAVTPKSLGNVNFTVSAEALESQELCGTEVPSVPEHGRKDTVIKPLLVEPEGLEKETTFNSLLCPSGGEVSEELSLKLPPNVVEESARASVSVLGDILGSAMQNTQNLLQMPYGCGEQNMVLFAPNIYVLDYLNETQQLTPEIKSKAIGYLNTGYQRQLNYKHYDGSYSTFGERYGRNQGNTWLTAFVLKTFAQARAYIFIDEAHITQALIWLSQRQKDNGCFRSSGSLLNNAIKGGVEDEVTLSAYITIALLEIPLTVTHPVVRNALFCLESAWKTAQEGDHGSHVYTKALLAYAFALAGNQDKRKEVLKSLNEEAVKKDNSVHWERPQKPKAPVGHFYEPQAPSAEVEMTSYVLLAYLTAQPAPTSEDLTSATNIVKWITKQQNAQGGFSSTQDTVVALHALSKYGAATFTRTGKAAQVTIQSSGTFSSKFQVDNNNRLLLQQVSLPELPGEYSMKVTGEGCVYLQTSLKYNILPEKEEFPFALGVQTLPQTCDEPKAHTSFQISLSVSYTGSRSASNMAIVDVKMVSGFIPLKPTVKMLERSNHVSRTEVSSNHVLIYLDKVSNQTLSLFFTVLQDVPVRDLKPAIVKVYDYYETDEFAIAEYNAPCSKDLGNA
Protocol: (§1) A solution of 0.05M HEPES 0.15M NaCl pH 7.5 (HBS) was prepared. Thrombin-A2M was prepared by reaction of 40 μL of 5 mg A2M (Sigma)/mL+40 μL of 0.2 mg thrombin (Enzyme Research Laboratories, South Bend, 1N, USA)/mL HBS for 40 to 60 minutes at 23° C. (solution #1). Solutions of 40 μL of 5 mg A2M/mL+40 μL HBS (solution #2) and 40 μL of 0.2 mg thrombin/mL+40 μL HBS (solution #3) were prepared.
(§2) The following reactions with S2238 were carried out in 96-well plate wells. • 1. 5 μL of solution #1 were added to 10 uL of 0.5 mg antithrombin (purified antithrombin III protein, Affinity Biologicals, Ancaster, Ontario, Canada)/mL HBS+1 μL of 100 U heparin (Leo Laboratories, Ajax, Ontario, Canada)/mL HBS+74 μL HBS. After 10 minutes, 10 μL of 3.192 mg S2238/mL H2O was added with mixing, absorbance readings at 405 nm measured every 10 seconds for 100 seconds and the change in absorbance over that time recorded (AA). • 2. 5 μL of solution #2 were added to 10 uL of 0.5 mg antithrombin/mL HBS+1 μL of 100 U heparin/mL HBS+74 μL HBS. After 10 minutes, 10 μL of 3.192 mg S2238/mL H2O was added with mixing, absorbance readings at 405 nm measured every 10 seconds for 100 seconds and the change in absorbance over that time recorded (AA). • 3. 5 μL of solution #3 were added to 10 uL of 0.5 mg antithrombin/mL HBS+1 μL of 100 U heparin/mL HBS+74 μL HBS. After 10 minutes, 10 μL of 3.192 mg S2238/mL H2O was added with mixing, absorbance readings at 405 nm measured every 10 seconds for 100 seconds and the change in absorbance over that time recorded (AA). • 4. 5 μL of solution #1 were added to 85 uL of HBS. After 10 minutes, 10 μL of 3.192 mg S2238/mL H2O was added with mixing, absorbance readings at 405 nm measured every 10 seconds for 100 seconds and the change in absorbance over that time recorded (AA). • 5. 5 μL of solution #2 were added to 85 uL of HBS. After 10 minutes, 10 μL of 3.192 mg S2238/mL H2O was added with mixing, absorbance readings at 405 nm measured every 10 seconds for 100 seconds and the change in absorbance over that time recorded (AA). • 6. 5 μL of solution #3 were added to 85 uL of HBS. After 10 minutes, 10 μL of 3.192 mg S2238/mL H2O was added with mixing, absorbance readings at 405 nm measured every 10 seconds for 100 seconds and the change in absorbance over that time recorded (LA).

thrombin-A2M [1] = target: T2, thrombin-A2M (Homo sapiens, UniProt P00734); test: as above; settings: for ΔA: absorbance 405 nm over 100 seconds
T2 construct: 0.2 mg thrombin (Enzyme Research Laboratories, South Bend, 1N, USA)/mL HBS; purchased Enzyme Research Laboratories (thrombin); Sigma (A2M)
Protocol: as §1, §2

thrombin [2] = target: T3, thrombin (Homo sapiens, UniProt P00734); test: as above; settings: for ΔA: absorbance 405 nm over 100 seconds
T3 construct: 0.2 mg thrombin (Enzyme Research Laboratories, South Bend, 1N, USA)/mL HBS; purchased Enzyme Research Laboratories
Protocol: as §1, §2

thrombin-A2M [3] = target: T2, thrombin-A2M; test: Further comparison of reactivities (Example 3), change in absorbance; settings: reactant thrombin-A2M
Protocol: (§3) Thrombin and thrombin-A2M were added to samples of S2238 and S2238-Agarose.

thrombin [4] = target: T3, thrombin; test: as above; settings: reactant Thrombin
Protocol: as §3

[5] = tested on: Total Thrombin (Free Thrombin+Thrombin-A2M); test: Plasma thrombin generation, subsamples detected with free S2238 or S2238-Agarose; settings: for Thrombin activity detected (absorbance at 405 nm), in words: plasma samples with free thrombin+thrombin-A2M, FIG. 5
Protocol: Plasma is taken and the fibrinogen removed by reaction with ancrod enzyme to form a fibrin clot that is wound out to give the resultant defibrinated plasma. At time zero, tissue factor (Thromborel S)+CaCl2 are added to start thrombin generation in the pre-warmed defibrinated plasma. At certain time points, subsamples from the reaction mixture are taken into Na2EDTA to stop further thrombin generation by chelating the Ca^2+. Thrombin activity in the time sample (containing both free thrombin and thrombin bound to alpha-2-macroglobulin (A2M)) was then detected by mixing with either free S2238 substrate in buffer or sterically hindered S2238 substrate (S2238-Agarose beads) suspended in buffer. In order to determine the ability of free S2238 or S2238-Agarose to detect thrombin-A2M, a similar experiment to the above method was carried out, except that all free thrombin was inhibited first by mixing with antithrombin+heparin prior to incubation with substrate. […] Thus, early time point samples (i.e. 60 seconds) would contain more free thrombin than thrombin-A2M, while later time point samples (i.e. 300 seconds) would contain much more thrombin-A2M than free thrombin.
12 mm (ID)×75 mm (L) polycarbonate plastic test tubes were used for plasma thrombin generation. • 1. Defibrination of Plasma: • a. 800 μL of Plasma was incubated with 10 μL of 30 U/mL Ancrod stock at 37° C. for 10 minutes. • b. After incubation, fibrin clot that formed was wound out on a plastic rod, leaving supernatant defibrinated plasma. • c. Test tube was placed on ice for 10 minutes. • d. After 10-minute incubation, any further clots were wound out. • e. Defibrinated plasma was stored on ice. • 2. The activator solution (12.5 μL Thromborel S+4.0 μL 1M CaCl2+183.5 μL HBS) was warmed at 37° C. in a tube. In a separate tube, 150 μL of defibrinated plasma was warmed at 37° C. • 3. At t=0, 150 μL of activator solution was mixed with 150 μL of defibrinated plasma, at 37° C. • 4. […] Aliquots of […] of supernatant from each sample were placed in 96-well plate wells and the absorbance at 405 nm measured.

thrombin-A2M [6] = target: T2, thrombin-A2M; test: Plasma thrombin generation, free thrombin neutralized by antithrombin+heparin before substrate; settings: plasma samples with thrombin-A2M only (free thrombin neutralized by antithrombin+heparin); FIG. 5
Protocol: Plasma is taken and the fibrinogen removed by reaction with ancrod enzyme to form a fibrin clot that is wound out to give the resultant defibrinated plasma. At time zero, tissue factor (Thromborel S)+CaCl2 are added to start thrombin generation in the pre-warmed defibrinated plasma. At certain time points, subsamples from the reaction mixture are taken into Na2EDTA to stop further thrombin generation by chelating the Ca^2+. Thrombin activity in the time sample (containing both free thrombin and thrombin bound to alpha-2-macroglobulin (A2M)) was then detected by mixing with either free S2238 substrate in buffer or sterically hindered S2238 substrate (S2238-Agarose beads) suspended in buffer. […]
12 mm (ID)×75 mm (L) polycarbonate plastic test tubes were used for plasma thrombin generation. • 1. […] Aliquots of 2004 of supernatant from each sample were placed in 96-well plate wells and the absorbance at 405 nm measured.
The experiment described above was repeated, except that at step 4, 25 μL of time sample was added to 5 μL of 50 U antithrombin/mL PBS (7.2 mg antithrombin/mL)+2 μl of 100 U heparin/mL 0.15M NaCl on ice. […] Absorbance detected at 405 nm was essentially due to substrate reaction with thrombin-A2M alone (free thrombin having been neutralized by antithrombin+heparin).

human alpha thrombin = target: T4, human alpha thrombin (Homo sapiens, UniProt P00734); test: Reaction of thrombin with S2238 SEPHAROSE beads or free S2238, absorbance at 405 nm of supernatant; settings: + thrombin + TSP buffer; 100 nM thrombin, 23° C.
T4 construct: 100 nM human alpha thrombin (Enzyme Research Laboratories); purchased Enzyme Research Laboratories
Protocol: 0.5 mL of resuspended S2238 SEPHAROSE™ beads was placed in each of 2 microfuge tubes (1.5 mL capacity), followed by centrifugation at 12000 g for 1 minute and removal of the resultant supernatant. Beads in each tube were resuspended in 0.5 mL of 0.02 M Tris-HCl 0.15 M NaCl 0.6% polyethylene glycol 8000 pH 7.4 (TSP), centrifuged for 1 minute and the resultant supernatant discarded. A solution of 100 nM human alpha thrombin (Enzyme Research Laboratories) in TSP was prepared. 0.5 mL of thrombin was added to one tube of packed S2238 SEPHAROSE™ beads (tube 1) and 0.5 mL of TSP was added to the other tube of S2238-SEPHAROSE™ beads (tube 2). In a separate empty tube, 0.05 mL of free (not conjugated to beads) S2238 stock solution (12.5 mg of S2238/mL of H2O)+0.15 mL of TSP+0.5 mL of 100 nM thrombin were added (tube 3). Finally, in a separate empty tube, 0.05 mL of free S2238 stock solution+0.65 mL of TSP were added (tube 4). All of the tubes were capped and tubes+contents were gently shaken by inversion manually for 10 min at 23° C. Following inversion mixing, tubes were centrifuged at 12000 g for 1 min and 0.2 mL of supernatant fluid from each tube quickly removed to separate wells of a 96-well microtitre plate and the absorbance at 405 nm measured.

ΔA (A2M; A2M + antithrombin + heparin added): 0 | ΔA (A2M; A2M added): 0 | ΔA (thrombin-A2M [1]; Thrombin-A2M added): 0.8 | Reaction with thrombin-A2M (in words) (thrombin-A2M [1]; summary of Table 1): reacts readily | ΔA (thrombin-A2M [1]; thrombin-A2M + antithrombin + heparin added): 0.8 | ΔA (thrombin [2]; Thrombin added): 0.95 | Reaction with free thrombin (in words) (thrombin [2]; summary of Table 1): reacts readily | ΔA (thrombin [2]; thrombin + antithrombin + heparin added): 0 | Thrombin Activity (Δ absorbance/minute) (thrombin-A2M [3]): 0.48 Δ absorbance/minute | Thrombin Activity (Δ absorbance/minute) (thrombin [4]): 0.57 Δ absorbance/minute | Thrombin activity detected (absorbance at 405 nm), in words (thrombin-A2M [6]): significant thrombin activity | Absorbance at 405 nm of supernatant after 10 minutes incubation and 1 minute centrifugation (human alpha thrombin): 1.143
Substance: H-D-Phe-Pip-Arg-pNA [S2238]
Which thrombin species accounts for the detected activity (comparison of samples) ([5]; comparison of free thrombin+thrombin-A2M samples with thrombin-A2M only samples, 60 sec or 300 sec): the vast majority of soluble S2238 activity is due to thrombin-A2M | Thrombin activity detected (absorbance at 405 nm), in words ([5]; 60 seconds after plasma activation): significant activity | Thrombin activity detected (absorbance at 405 nm), in words ([5]; 300 seconds after plasma activation): significant thrombin substrate activity

Reference: patent publication US9091700B2, “Modified peptide substrate” (McMaster University, priority 2005, dated 2015)
